Laboratory results: paper PMC8551122, “Characterization and Modeling of Thermostable GH50 Agarases from Microbulbifer elongatus PORT2” (Marine Biotechnology (New York, N.y.), 2021)

Biological target: T1, AgaB50 (Microbulbifer elongatus, UniProt A0A516UX44)
T1 construct: full-length precursor 769 aa; 26 N-terminal residues (SPII lipoprotein signal peptide) deleted; N-terminal His6 tag; E. coli BL21 (DE3), pFO4; about 82 kDa
T1 sequence (A0A516UX44 1-743): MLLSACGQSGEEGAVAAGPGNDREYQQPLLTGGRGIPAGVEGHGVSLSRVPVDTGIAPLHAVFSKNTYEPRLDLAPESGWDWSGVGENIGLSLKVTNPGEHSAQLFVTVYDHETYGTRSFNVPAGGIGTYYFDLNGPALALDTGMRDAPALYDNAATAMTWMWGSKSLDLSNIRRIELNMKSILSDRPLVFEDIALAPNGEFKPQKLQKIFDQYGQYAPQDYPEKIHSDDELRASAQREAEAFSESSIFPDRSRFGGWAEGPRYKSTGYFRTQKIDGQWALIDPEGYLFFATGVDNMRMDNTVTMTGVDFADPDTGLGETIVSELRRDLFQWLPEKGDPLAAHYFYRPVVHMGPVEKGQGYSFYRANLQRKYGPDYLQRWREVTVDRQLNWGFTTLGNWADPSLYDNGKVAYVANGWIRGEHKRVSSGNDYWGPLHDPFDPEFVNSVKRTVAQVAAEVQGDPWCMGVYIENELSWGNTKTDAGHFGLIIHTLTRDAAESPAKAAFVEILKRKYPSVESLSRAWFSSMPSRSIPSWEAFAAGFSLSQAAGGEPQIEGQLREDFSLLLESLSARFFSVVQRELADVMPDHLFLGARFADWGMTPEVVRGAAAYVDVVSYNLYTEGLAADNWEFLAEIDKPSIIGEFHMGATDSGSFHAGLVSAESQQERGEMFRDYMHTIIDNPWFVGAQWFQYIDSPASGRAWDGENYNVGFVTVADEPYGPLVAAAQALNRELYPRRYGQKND
Assay: HPLC-RID product analysis, end point
Assay type: biochemical
Conditions: […] in ultrapure water, […] °C, overnight

Compound: OC[C@H]1O[C@@H](O[C@H]2[C@H]3OC[C@@H]2O[C@@H](O[C@H]2[C@@H](O)[C@@H](CO)O[C@@H](O[C@H]4[C@H]5OC[C@@H]4O[C@@H](O[C@H]4[C@@H](O)[C@@H](CO)O[C@@H](O[C@H]6[C@H]7OC[C@@H]6O[C@@H](O[C@H]6[C@@H](O)[C@@H](CO)OC(O)[C@@H]6O)[C@H]7O)[C@@H]4O)[C@H]5O)[C@@H]2O)[C@H]3O)[C@H](O)[C@@H](O[C@@H]2O[C@H]3CO[C@@H]([C@@H]2O)[C@@H]3O)[C@H]1O (stereo partly shown) [NA8, neoagarooctaose]
- HPLC-RID product analysis, end point: AgaB50 was able to convert larger NAOS such as NA8, NA6, and NA4
